Laboratory results reported in paper PMC8346053, “Towards Novel 3-Aminopyrazinamide-Based Prolyl-tRNA Synthetase Inhibitors: In Silico Modelling, Thermal Shift Assay and Structural Studies” (International Journal of Molecular Sciences, 2021).
“And” between values parts separate entries of the source, which are not always exact repeats. Identical values can stand only once. Like-named read-outs stand apart in the source and are kept apart here.

Tests used:
[1] = target: T1, recombinant HcProRS (Homo sapiens, UniProt P07814); assay: fluorescence-based thermal shift assay (TSA); assay type: binding; conditions: for Tm with 1 mM L-Pro / ∆Tm without L-Pro / Tm without L-Pro / ∆Tm with 1 mM L-Pro: 100 µM compound; for Tm with 1 mM L-Pro / ∆Tm without L-Pro / Tm without L-Pro / ∆Tm with 1 mM L-Pro / EC50: 3.45 µM HcProRS; for Tm with 1 mM L-Pro: reference Tm with Pro only 60.20; for ∆Tm without L-Pro / Tm without L-Pro: absence of Pro; for ∆Tm without L-Pro: difference of Tm with and without compound; for Tm without L-Pro: reference Tm of HcProRS 56.15; for ∆Tm with 1 mM L-Pro: versus HcProRS with 1 mM Pro only; for effect on Tm (in words): full datasets, with and without Pro; for fold better (lower) EC50 compared with 4d: relative to 4d
T1 construct: SUMO (N, cleaved yes); made in house; host or cells: E. coli Rosetta 2 (DE3) pLysS
T1 sequence (P07814 1001-1512): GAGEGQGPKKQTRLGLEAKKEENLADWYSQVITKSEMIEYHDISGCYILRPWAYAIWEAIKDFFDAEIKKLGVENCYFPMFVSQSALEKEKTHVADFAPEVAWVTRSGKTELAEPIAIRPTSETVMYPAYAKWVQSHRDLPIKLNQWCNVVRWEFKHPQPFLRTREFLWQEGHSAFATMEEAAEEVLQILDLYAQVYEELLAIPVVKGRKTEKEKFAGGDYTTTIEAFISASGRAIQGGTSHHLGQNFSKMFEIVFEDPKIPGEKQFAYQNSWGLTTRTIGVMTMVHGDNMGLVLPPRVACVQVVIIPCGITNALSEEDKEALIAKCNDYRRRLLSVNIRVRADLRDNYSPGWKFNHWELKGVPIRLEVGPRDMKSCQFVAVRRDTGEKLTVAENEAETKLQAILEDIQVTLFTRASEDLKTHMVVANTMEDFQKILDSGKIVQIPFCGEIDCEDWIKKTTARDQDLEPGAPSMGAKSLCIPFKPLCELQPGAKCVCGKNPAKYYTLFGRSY
Protocol: Compound binding usually helps to stabilize the protein due to protein-ligand interactions, resulting in an increase of the melting temperature (Tm) of the target protein during the thermal denaturation process. Each compound was pre-tested at 100 µM concentration against 3.45 µM HcProRS in the absence and presence of 1 mM Pro. The ∆Tm was calculated based on the difference between the Tm values of HcProRS with and without compound. […] In the presence of the natural substrate Pro, the Tm of HcProRS increased by 4 °C. […] In a second-tier characterization, the Tm-based EC50 values of these five hits were determined. […] This is in good agreement with the prior reported improved binding affinity and inhibitory activity of 2a in the presence of Pro when compared to the corresponding values obtained without Pro [16].
A total of 0.2 mg/mL HcProRS (corresponding to 3.45 µM) was incubated with various concentrations of different compounds in the absence or presence of 1 mM L-Pro with 1x thermal shift dye (Life Technologies, California, USA) in reaction buffer containing 50 mM HEPES pH 7.0, 150 mM KCl and 10% (v/v) ethylene glycol. Aliquots (20 µL) were transferred to a 96-well PCR plate in triplicate. After centrifugation to remove air bubbles, the plate was measured in Applied Biosystems® Protein Thermal Shift machine and subjected to a thermal gradient from 4 °C to 95 °C with the increasing rate of 0.05 °C/s. The fluorescence was detected by Protein Thermal Shift™ Software (Life Technologies, California, USA). Data analysis was performed by Boltzmann sigmoidal fitting to calculate melting temperature (Tm).
Figure S2. Dose-response melting curves of HcProRS in the presence of compound and 1 mM Pro. The melting temperature (Tm) at each compound concentration was determined by TSA with 3.45 µM of HcProRS. The reported EC50 values are based on the fitted curves. All reactions were performed in triplicate, the average values and standard errors are shown.
(1 picture or pasted object on this page, not shown here)

[2] = target: HcProRS; design: method as in PMID 28501621; conditions: in the presence of Pro; cited from earlier work
[3] = tested on: HcProRS; design: method as in PMID 28501621; conditions: ATP/PPi exchange assay in vitro; read-out: IC50, HcProRS inhibitory activity; cited from earlier work
[4] = tested on: HcProRS versus ThrRS; design: method as in PMID 28501621; conditions: reportedly; cited from earlier work
[5] = 1 mM Pro, read-out: EC50 (Tm-based) with 1 mM L-Pro

SMILES	Tm with 1 mM L-Pro ([1]; 1 mM Pro)	∆Tm without L-Pro [1]	Tm without L-Pro [1]	∆Tm with 1 mM L-Pro [1]	EC50 [1, 5]	also measured
O=C(NCc1ccccc1Cl)c1nccnc1NCc1ccccc1Cl [3b]	64.92 °C	−0.10 °C	56.05 °C	+4.72 °C	3.77 ± 0.85 µM	fold lower EC50 relative to 3c ([1]; TSA EC50 with 1 mM Pro, relative to 3c): 2 fold; fold lower EC50 compared with 4h ([1]; TSA EC50 with 1 mM Pro, relative to 4h): 3.6 fold
NC(=O)c1cnccn1 [PZA, pyrazinamide]	59.04 °C	−0.09 °C	56.06 °C	−1.16 °C		effect on Tm (in words) [1]: no effect on Tm
NC(=O)c1nccnc1NCc1cccc(Cl)c1 [4b]	60.42 °C	−0.77 °C	55.38 °C	+0.22 °C		
NC(=O)c1nccnc1NCc1ccccc1C(F)(F)F [4j]	67.12 °C		58.13 °C	+6.92 °C	15.3 ± 1.04 µM	fold better (lower) EC50 compared with 4d ([1]; TSA EC50 with 1 mM Pro): 6 fold and 7 fold
NC(=O)c1nccnc1NCc1ccccc1F [4i]	60.30 °C	−0.69 °C	55.46 °C	+0.10 °C		
O=C(O)[C@@H]1CCCN1 [Pro, proline]						increase of Tm of HcProRS by natural substrate Pro ([1]; 1 mM Pro, no compound): 4 °C
NC(=O)c1nccnc1NCc1ccccc1 [4a]	59.36 °C	−0.35 °C	55.80 °C	−0.84 °C		
O=C(O)c1cnccn1 [POA, pyrazinoic acid, reference compound]	59.06 °C	−0.63 °C	55.52 °C	−1.14 °C		effect on Tm (in words) [1]: no effect on Tm
O=C(NCc1ccc(F)cc1)c1nccnc1NCc1ccc(F)cc1 [3a]	58.21 °C	−0.90 °C	55.25 °C	−1.99 °C		
Cc1ccc(CNc2nccnc2C(N)=O)cc1 [4g]	59.09 °C	−0.39 °C	55.76 °C	−1.11 °C		
COc1ccc(CNc2nccnc2C(N)=O)c(OC)c1 [4k]	58.48 °C	−0.07 °C	56.08 °C	−1.72 °C		
Cc1ccccc1CNC(=O)c1nccnc1NCc1ccccc1C [3c]	62.72 °C	−0.90 °C	55.25 °C	+2.52 °C	7.34 ± 1.66 µM	fold better (lower) EC50 compared with 4d ([1]; TSA EC50 with 1 mM Pro): 12.4 fold
NC(=O)c1nccnc1NCc1ccc(Cl)cc1 [4e]	58.70 °C	−1.09 °C	55.06 °C	−1.5 °C		
NC(=O)c1nccnc1NCc1ccccc1Cl [4h]	62.47 °C		57.04 °C	+2.27 °C	13.6 ± 3.27 µM	fold better (lower) EC50 compared with 4d ([1]; TSA EC50 with 1 mM Pro): 6 fold and 7 fold
O=C(NC1Cc2ccccc2C1)c1nccnc1NC(=O)C1CCCCC1 [2a, 3-(cyclohexanecarboxamido)-N-(2,3-dihydro-1H-inden-2-yl)pyrazine-2-carboxamide, reference compound]	73.35 °C		63.15 °C		3.74 ± 0.67 µM	EC50 ([1]; no Pro, read-out: EC50 (Tm-based) in the absence of Pro): 30.3 ± 3.63 µM; Kd [2]: 0.00076 µM; IC50 [3]: 0.012 µM; selectivity for HcProRS versus ThrRS [4]: 2500 fold
Cc1ccccc1CNc1nccnc1C(N)=O [4d]	63.33 °C	−0.24 °C	55.91 °C	+3.13 °C	91.1 ± 18.4 µM	
Nc1nccnc1C(=O)O [3-NH2-POA, 3-aminopyrazinoic acid, reference compound]	59.50 °C	−0.28 °C	55.87 °C	−0.70 °C		effect on Tm (in words) [1]: no effect on Tm
COc1ccc(CNc2nccnc2C(N)=O)cc1 [4f]	58.33 °C	+0.19 °C	56.34 °C	−1.87 °C		
NC(=O)c1nccnc1NCc1ccc(Cl)c(Cl)c1 [4c]	57.47 °C	−1.58 °C	54.57 °C	−2.73 °C		
